# From patent US11337971B2, “Dopamine D3 receptor selective antagonists/partial agonists and uses thereof” (THE UNITED STATES OF AMERICA, AS REPRESENTED BY THE …, priority 2018, dated 2022)
# Entries after “also recorded” stand apart in the source; their conditions may differ. Where two headings read alike, the source gives them in different places.
# What was measured:
# [1] = target: human dopamine D3R (Homo sapiens (Human), UniProt P35462); assay: D3R mitogenesis assay: stimulation or inhibition of quinpirole-stimulated mitogenesis in CHO cells; assay type: cell-based; settings: for IC50: inhibition of quinpirole-stimulated mitogenesis; for EC50: stimulation of mitogenesis, read-out: Agonist EC50 ± SEM
# [2] = target: human D3R (Homo sapiens (Human), UniProt P35462); assay: Radioligand competition binding, [3H]N-methylspiperone, HEK293 membranes expressing human D3R; settings: for Ki: read-out: D3R Ki ± SEM; for D2/D3: ratio of Ki values
# How it was run: (§1)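 HEK293 membranes (10 μg protein) incubated 1 h at room temperature in EBSS with 0.2 mM sodium metabisulfite, 0.4 nM [3H]N-methylspiperone and compound (10 μM to 10 pM, triplicate). Nonspecific binding defined with 10 μM butaclamol; GF/B filtration.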
# [3] = target: T1, 5-HT1A (Homo sapiens (Human), UniProt P08908); assay: 5-HT1A [3H]-8-OH-DPAT binding; settings: read-out: 5-HT1A [3H]-8-OH-DPAT Ki ± SEM
# [4] = target: human D2R (Homo sapiens (Human), UniProt P14416); assay: Radioligand competition binding, [3H]N-methylspiperone, HEK293 membranes expressing human D2R; settings: read-out: D2R Ki ± SEM
# How it was run: as §1
# [5] = target: T1, 5-HT1A; assay: 5-HT1A [35S]GTPγS binding functional assay; assay type: biochemical
# [6] = target: 5-HT2C (Homo sapiens (Human), UniProt P28335); assay: 5-HT2C [125I]DOI binding; settings: read-out: 5-HT2C [125I]DOI Ki ± SEM
# [7] = Phase I metabolic stability in rat liver microsomes; assay type: in vitro ADME; settings: phase I metabolic stability in rat liver microsomes
# From the text: Rat Liver Microsome Metabolic Stability: Test compounds including 3-F analogues (C4a, C4b, C5a, C5b) and 29, 19 as well as the R-, S-enantiomers of C4a, C5a, 29 and 19 were screened for phase I metabolic stability in rat liver microsomes.
# [8] = target: 5-HT2A (Homo sapiens (Human), UniProt P28223); assay: 5-HT2A [125I]DOI binding; settings: read-out: 5-HT2A [125I]DOI Ki ± SEM
# [9] = test system: Male Long-Evans rats; assay: Hot plate test of oxycodone-induced antinociceptive response in rats; assay type: in vivo, rat; settings: oxycodone in vehicle pretreated group
# Procedure: Nociceptive tests were performed using a hot plate device (Model 39, IITC Life Science Inc., Woodland Hills, Calif., USA). The rat was put inside a transparent cage on the hot plate (52±0.2° C.). When thermal nociceptive signs such as licking, stomping the hind paw, or jumping from the plate appeared, the rat was immediately removed from the cage. […] The cut-off time for the test was 60 s to avoid tissue damage.
# These experiments involved 8 groups of rats (n=8-9/group) in 2 series of repeated testing: 4 groups were used to test the effects of compound (±)-29 pretreatment on the time course of antinociception induced by oxycodone at a single dose, and another 4 groups were used to test the effects of compound (±)-29 pretreatment on the antinociception induced by various oxycodone doses. Each rat was first habituated to the testing environment for 1 h, followed by placement on the hot plate without treatment to obtain baseline response latencies. The groups in the time course test received baseline testing. Then, group 1 was pretreated with vehicle, and the other 3 groups were pretreated with a dose of compound (±)-29 (5, 15 or 25 mg/kg, i.p.). Fifteen min following the pretreatment, each rat was challenged with a saline injection (1 ml/kg) and, 30 min later, tested for the second time on the hot plate. On the next day, each group received the same pretreatment as on day 1, but challenged with oxycodone (2 mg/kg, i.p.), and each rat was then tested again at 30-, 60- and 120-min following oxycodone challenge. […] Data were calculated as % of maximum percentage effect (% MPE) using the formula: (treatment value−basal value)/(cutoff value−basal value)×100.
# Methods: Compound (±)-29 was administered 15 minutes before saline or oxycodone challenge at 5 mg/kg, 15 mg/kg, and 25 mg/kg. […] The rat was then immediately removed from the hot plate and the time latency was recorded.
# [10] = test system: rhesus monkeys; assay: Thermal tail withdrawal model of oxycodone antinociception in rhesus monkeys; assay type: in vivo, rhesus monkey; settings: FIG. 6B
# [11] = target: human D4R (Homo sapiens (Human), UniProt P21917); assay: Radioligand competition binding, [3H]N-methylspiperone, HEK293 membranes expressing human D4R; settings: Table 1A; for Ki: [3H]N-methylspiperone, read-out: D4R Ki ± SEM; for D4/D2 / D4/D3: ratio of Ki values
# How it was run: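 HEK293 membranes with human D4R (20 μg protein) and 0.4 nM [3H]N-methylspiperone in EBSS with sodium metabisulfite, 1 h at room temperature, filtration read-out. Compounds 10 μM to 10 pM; nonspecific binding with 10 μM butaclamol. Ki by Cheng-Prusoff from IC50, at least three experiments.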
# [12] = in vivo; parameters: species or system rat; settings: rat, in vivo, po, 10 mg/kg; for AUC(0-t) / Cmax: male, Long-Evans
# Procedure: Male Long-Evans rats with body weights ˜250 grams (Charles River Laboratories, Raleigh, N.C., USA) were used in this study. […] Food and water were available ad libitum throughout the experiments. All experimental procedures were conducted in accordance with the Guide for the Care and Use of Laboratory Animals and were approved by the Animal Care and Use Committee of the National Institute on Drug Abuse of the U.S. National Institutes of Health.
# Experimental (oral gavage) procedures: The animals were gently restrained (grasp the animal by the loose skin of the neck and back) to immobilize the head but not such that the animals vocalize or show other signs of distress. Maintained the animal in an upright (vertical) position and passed the gavage needle (19-gauge) along the side of the mouth. Following the roof of the mouth, advanced the needle into the esophagus and toward the stomach. After the needle was passed to the correct length, the compound was injected. Then, the animals were deeply anesthetized with 100 mg/kg pentobarbital (i.p.), and then blood (˜1 ml) was obtained via cardiac puncture and brain was dissected at different time points (15 min, 30 min, 60 min, 2 h, 4 h, and 8 h, n=3 rats per time point) after oral drug administration.
# These solutions were stored at −20° C. Losartan (IS) was dissolved in DMSO at 10 mM concentration that was further diluted in acetonitrile to obtain a final concentration of 500 nM and the solutions were stored at −20° C.
# Standard Curve and Quality Control (QC) Sample Preparation: Standard curve plasma samples were prepared using naïve rat plasma, by serial dilution of the stock solution, with 8 standards and 4 QCs, ranging from 10-50,000 pmol/mL.
# Standard curve brain samples were prepared using naïve rat brain. The tissue was homogenized in acetonitrile (Dilution Factor; DF=3), crushed, and centrifuged at 10,000 rpm for 10 minutes. The resulting supernatant was used as the standard curve matrix. The standard curve was subsequently prepared by serial dilution of the stock solution, with 7 standards and 4 QCs, ranging from 30-50000 pmol/mL.
# Extraction Procedure: Test compounds were extracted from plasma samples by protein precipitation using acetonitrile. Compounds were extracted from brain samples by placing weighed tissue into 2 times w/v of acetonitrile (DF=3), crushed, centrifuged at 10,000 rpm for 10 minutes, and the resultant supernatant was used as the sample solution. Briefly standards, QCs, and samples (25 μL) were mixed with 100 μL acetonitrile containing 0.5 μM Losartan (internal standard; IS) in low retention microcentrifuge tubes. The mixture was vortexed for 1 min and centrifuged at 10,000 rpm for 10 min at 5° C. 50 μL of supernatant was transferred to a 250 μL polypropylene autosampler vials and mixed with 50 μL water, and sealed with a Teflon cap. A volume of 3 μL was injected onto the ultra-performance liquid chromatography (UPLC) instrument for quantitative analysis using a temperature-controlled autosampler operating at 10° C.
# Calibration curves for all test compounds were computed using the ratio of the peak area of analyte to the internal standard by using a quadratic regression with 1/× weighting. The parameters of each calibration curve were used to back-calculate concentrations and to obtain values for the QC samples and unknown samples by interpolation.
# [13] = Table 1B, [3H]-N-methylspiperone competition, D2LR, 96-well plates
# [14] = Table 3b, read-out: 5-HT1A [35S]GTPγS binding Agonist EC50 ± SEM
# [15] = Table 2a, read-out: Antagonist IC50 ± SEM
# [16] = Table 1A, HEK 293 cells transfected with hD3R, [3H]N-methylspiperone
# [17] = Table 1A, HEK 293 cells transfected with hD2LR, [3H]N-methylspiperone
# [18] = Table 3a, read-out: 5HT1A [35S]GTPγS binding Agonist EC50 ± SEM
# T1 sequence (P08908 whole entry, species assumed): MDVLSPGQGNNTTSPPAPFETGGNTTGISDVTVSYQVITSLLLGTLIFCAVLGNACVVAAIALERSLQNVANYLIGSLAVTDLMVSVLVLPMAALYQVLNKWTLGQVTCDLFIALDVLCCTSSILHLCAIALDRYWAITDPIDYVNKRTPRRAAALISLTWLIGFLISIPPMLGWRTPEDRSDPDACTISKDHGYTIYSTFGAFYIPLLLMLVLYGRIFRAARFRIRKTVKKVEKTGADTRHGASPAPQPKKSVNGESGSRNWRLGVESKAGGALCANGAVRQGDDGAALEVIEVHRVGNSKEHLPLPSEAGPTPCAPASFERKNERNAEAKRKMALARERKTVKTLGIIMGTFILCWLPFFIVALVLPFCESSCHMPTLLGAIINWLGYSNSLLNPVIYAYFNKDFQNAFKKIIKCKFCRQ
# Chain of human D3R (P35462 whole entry): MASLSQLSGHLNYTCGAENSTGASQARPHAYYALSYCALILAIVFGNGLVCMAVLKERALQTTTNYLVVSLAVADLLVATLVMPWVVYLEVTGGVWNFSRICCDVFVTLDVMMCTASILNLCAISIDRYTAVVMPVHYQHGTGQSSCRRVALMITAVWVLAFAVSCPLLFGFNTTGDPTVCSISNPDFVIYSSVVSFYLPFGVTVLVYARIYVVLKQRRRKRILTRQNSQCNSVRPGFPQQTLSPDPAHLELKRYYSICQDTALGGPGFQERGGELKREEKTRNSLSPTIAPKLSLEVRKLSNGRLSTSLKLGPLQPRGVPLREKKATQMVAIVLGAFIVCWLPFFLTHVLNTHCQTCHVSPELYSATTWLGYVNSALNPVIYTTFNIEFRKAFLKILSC
# Chain of human dopamine D3R (P35462 whole entry): as above
# Chain of 5-HT2C (P28335 33-458, species assumed): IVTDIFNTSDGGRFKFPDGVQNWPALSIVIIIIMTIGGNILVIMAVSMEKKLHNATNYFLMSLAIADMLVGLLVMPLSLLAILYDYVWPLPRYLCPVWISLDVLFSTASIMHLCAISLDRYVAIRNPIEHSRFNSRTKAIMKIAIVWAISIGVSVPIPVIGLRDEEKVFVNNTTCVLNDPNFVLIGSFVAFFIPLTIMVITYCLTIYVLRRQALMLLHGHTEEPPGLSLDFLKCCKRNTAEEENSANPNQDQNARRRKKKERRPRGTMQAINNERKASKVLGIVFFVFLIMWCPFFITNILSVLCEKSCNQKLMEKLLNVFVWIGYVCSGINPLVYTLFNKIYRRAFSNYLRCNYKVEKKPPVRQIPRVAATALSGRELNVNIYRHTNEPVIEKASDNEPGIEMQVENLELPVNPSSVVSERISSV
# Chain of human D2R (P14416 whole entry): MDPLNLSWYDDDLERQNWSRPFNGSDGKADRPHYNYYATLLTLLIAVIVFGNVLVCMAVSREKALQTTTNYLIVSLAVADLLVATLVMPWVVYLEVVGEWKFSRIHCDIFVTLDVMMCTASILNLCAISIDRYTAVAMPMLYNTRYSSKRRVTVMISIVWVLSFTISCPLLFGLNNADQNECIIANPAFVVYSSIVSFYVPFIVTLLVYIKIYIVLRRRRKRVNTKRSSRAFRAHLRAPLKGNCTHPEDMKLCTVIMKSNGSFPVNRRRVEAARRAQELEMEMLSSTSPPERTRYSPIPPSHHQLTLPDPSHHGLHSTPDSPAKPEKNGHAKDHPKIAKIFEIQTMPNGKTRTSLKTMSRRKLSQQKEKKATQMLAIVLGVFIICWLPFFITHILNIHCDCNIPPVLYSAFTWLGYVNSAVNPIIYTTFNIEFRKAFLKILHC
# Chain of 5-HT2A (P28223 whole entry, species assumed): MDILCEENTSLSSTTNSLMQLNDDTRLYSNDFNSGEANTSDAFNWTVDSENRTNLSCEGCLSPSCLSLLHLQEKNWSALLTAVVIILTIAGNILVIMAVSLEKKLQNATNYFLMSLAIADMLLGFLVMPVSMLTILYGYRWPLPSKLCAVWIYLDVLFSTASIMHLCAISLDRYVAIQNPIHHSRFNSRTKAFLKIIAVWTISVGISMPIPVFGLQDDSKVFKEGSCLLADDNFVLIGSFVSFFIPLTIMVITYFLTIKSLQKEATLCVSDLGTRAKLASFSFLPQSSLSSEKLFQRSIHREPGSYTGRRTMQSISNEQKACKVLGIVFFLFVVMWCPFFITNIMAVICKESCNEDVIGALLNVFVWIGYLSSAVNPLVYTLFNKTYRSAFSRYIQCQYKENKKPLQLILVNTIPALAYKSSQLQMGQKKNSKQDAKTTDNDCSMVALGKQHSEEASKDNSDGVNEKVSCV
# Chain of human D4R (P21917 whole entry): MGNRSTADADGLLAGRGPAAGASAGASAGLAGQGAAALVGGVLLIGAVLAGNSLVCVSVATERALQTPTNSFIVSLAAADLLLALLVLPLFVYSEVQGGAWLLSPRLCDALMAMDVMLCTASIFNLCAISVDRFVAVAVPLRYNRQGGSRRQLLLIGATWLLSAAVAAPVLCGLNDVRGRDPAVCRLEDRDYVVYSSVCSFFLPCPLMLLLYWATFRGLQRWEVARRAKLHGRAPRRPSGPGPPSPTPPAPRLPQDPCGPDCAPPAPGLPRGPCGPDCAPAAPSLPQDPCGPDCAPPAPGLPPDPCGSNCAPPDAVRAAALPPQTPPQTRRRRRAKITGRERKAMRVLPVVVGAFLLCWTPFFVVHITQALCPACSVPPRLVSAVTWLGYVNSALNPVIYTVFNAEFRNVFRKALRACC
structure (smiles),measurement,setting,value
"CCc1cccc(N2CCN(CC(F)CCNC(=O)c3cc4ccccc4o3)CC2)c1Cl (racemic) [Compound C5b, N-(4-(4-(2-chloro-3-ethylphenyl)piperazin-1-yl)-3-fluorobutyl)benzofuran-2-carboxamide]",IC50,"[1]; Table 2b, read-out: Antagonist IC50 ± S.E.M.",450 ± 160 nM
same,Ki,"[2]; Table 1B, [3H]-N-methylspiperone competition, 96-well plates",2.09 ± 0.484 nM
same,D2/D3,[2]; Table 1B,141
same,D2/D3,[2]; Table 1C,134
same,Ki,[2]; Table 1C,2.45 ± 0.51 nM
same,Ki,[3]; Table 3b,117 ± 14 nM
same,Ki,[4]; [13],295 ± 30.1 nM
same,Ki,[4]; Table 1C,328 ± 33.5 nM
same,EC50,[5]; [14],351 ± 84 nM
same,Ki,[6]; Table 3b,464 ± 36 nM
same,% intact/parent remaining,[7],34%
same,Ki,[8]; Table 3b,336 ± 19 nM
"COc1ccc2c3c1O[C@H]1C(=O)CC[C@@]4(O)[C@@H](C2)N(C)CC[C@]314 [Oxycodone, reference compound]","% MPE, hot plate",[9],significantly increased % MPE; also recorded: dose-dependently increased MPE %
"O=C1CC[C@@]2(O)[C@H]3Cc4ccc(O)c5c4[C@@]2(CCN3CC2CC2)[C@H]1O5 [naltrexone, reference compound]",effect on oxycodone antinociception,[10],deleterious effects on oxycodone antinociception
"CCc1cccc(N2CCN(CCCCNC(=O)c3cc4ccccc4o3)CC2)c1Cl [Compound 20, N-(4-(4-(2-Chloro-3-ethylphenyl)piperazin-1-yl)butyl)benzofuran-2-carboxamide]",IC50,[1]; [15],18.5 ± 6.3 nM
same,EC50,[1]; Table 2a,410 ± 130 nM
same,D3R Ki ± SEM (nM),[2]; [16],subnanomolar
same,Ki,[2]; [16],0.153 ± 0.00527 nM
same,D2/D3,[2]; Table 1A,41
same,Ki,[3]; Table 3a,26 ± 8.1 nM
same,Ki,[11],356 ± 64.4 nM
same,D4/D2,[11],56
same,D4/D3,[11],2327
same,Ki,[4]; [17],6.34 ± 0.959 nM
same,EC50,[5]; [18],31 ± 10 nM
same,Ki,[6]; Table 3a,18.7 ± 4.5 nM
same,Ki,[8]; Table 3a,2.41 ± 0.82 nM
"CCc1cccc(N2CCN(C[C@@H](O)CCNC(=O)c3cc4ccccc4[nH]3)CC2)c1Cl [(S)-19, (S)-N-(4-(4-(2-chloro-3-ethylphenyl)piperazin-1-yl)-3-hydroxybutyl)-1H-indole-2-carboxamide]",AUC(0-t),[12],2.68 ± 0.208 µM·h
same,Cmax,[12],601 ± 108 nM
same,brain exposure (AUC0-t),[12],16665 ± 1205 pmol·h/g
same,brain penetration,[12],highly brain penetrable
same,Ki,[3]; Table 3b,131 ± 12 nM
same,Ki,[4]; [13],200 ± 57.9 nM
same,Ki,[4]; Table 1C,219 ± 66.2 nM
same,EC50,[5]; [14],2060 ± 580 nM
same,Ki,[6]; Table 3b,1110 ± 360 nM
same,Ki,[8]; Table 3b,940 ± 130 nM
"CCc1cccc(N2CCN(C[C@H](O)CCNC(=O)c3cc4ccccc4[nH]3)CC2)c1Cl [(R)-19, (R)-N-(4-(4-(2-chloro-3-ethylphenyl)piperazin-1-yl)-3-hydroxybutyl)-1H-indole-2-carboxamide]",D3R functional efficacy (antagonist / partial agonist),[1]; quinpirole-stimulated mitogenesis in CHO cells,D3R antagonists
same,AUC(0-t),[12],1.99 ± 0.279 µM·h
same,Cmax,[12],306 ± 113 nM
same,brain exposure (AUC0-t),[12],21608 ± 1411 pmol·h/g
same,brain penetration,[12],highly brain penetrable
same,Ki,[3]; Table 3b,248 ± 18 nM
same,Ki,[4]; [13],68.1 ± 12.3 nM
same,Ki,[4]; Table 1C,75.8 ± 13.7 nM
same,EC50,[5]; [14],1050 ± 260 nM
same,Ki,[6]; Table 3b,50 ± 13 nM
same,Ki,[8]; Table 3b,21.3 ± 6.6 nM
"CCc1cccc(N2CCN(CC(O)CCNC(=O)c3cc4ccccc4o3)CC2)c1Cl (stereo not shown) [Compound 21, N-(4-(4-(2-Chloro-3-ethylphenyl)piperazin-1-yl)-3-hydroxybutyl)benzofuran-2-carboxamide]",IC50,[1]; [15],230 ± 27 nM
same,EC50,[1]; Table 2a,196 ± 64 nM
same,D3R Ki ± SEM (nM),[2]; [16],subnanomolar
same,Ki,[2]; [16],0.985 ± 0.105 nM
same,D2/D3,[2]; Table 1A,166
same,Ki,[3]; Table 3a,27.6 ± 5.3 nM
same,Ki,[11],2380 ± 110 nM
same,D4/D2,[11],15
same,D4/D3,[11],2417
same,Ki,[4]; [17],164 ± 32.4 nM
same,EC50,[5]; [18],118 ± 39 nM
same,Ki,[6]; Table 3a,89 ± 22 nM
same,Ki,[8]; Table 3a,3.2 ± 1.1 nM
